Laboratory results from PMC7423246, “A Peptide–Lectin Fusion Strategy for Developing a Glycan Probe for Use in Various Assay Formats” (Chemosensors (Basel, Switzerland), 2019).

Target: T1, Pseudomonas fluorescens agglutinin (PFA) (Pseudomonas fluorescens, UniProt Q3KJ04)
T1 construct: gene Pfl01_0508; 14 kDa
T1 sequence (Q3KJ04 1-133): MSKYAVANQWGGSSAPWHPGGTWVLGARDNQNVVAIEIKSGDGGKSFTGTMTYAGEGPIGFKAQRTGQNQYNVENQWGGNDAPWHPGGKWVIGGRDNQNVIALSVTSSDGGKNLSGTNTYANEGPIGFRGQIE
Assay: competitive ELISA on immobilized gp120
Settings: inhibition of PFA binding to immobilized gp120, 400 nM PFA, 0-2000 mM mannose, room temperature not stated for this step

**Q.** With `OC[C@H]1OC(O)[C@@H](O)[C@@H](O)[C@@H]1O` (stereo partly shown) [mannose] as the compound, how does the onset of inhibition read?
**A.** ~ 200 mM
